Data reported in patent US20060069132A1, “Azolecarboxamide herbicides” (priority 2004, published 2006).

Legend:
barnyardgrass [1] = experiment: Test B pre-/postemergence herbicide test; format: in vivo, Echinochloa crus-galli
In short: (§1)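 Pre: seeds sown, then sprayed. Post: 1–4-leaf plants (2–18 cm) sprayed at the same time. Paddy: flooded, treated at 2-leaf stage. Formulation: non-phytotoxic solvent with surfactant. Greenhouse 13–15 days; visual 0–100 score relative to controls.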

Surinam grass = experiment: Test B pre-/postemergence herbicide test; format: in vivo, Urochloa decumbens; details: for Surinam Grass plant response rating: postemergence, visual rating
In short: (§2)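 Plants compared with untreated controls 13–15 days post-treatment and given a visual 0–100 injury score. Applications: preemergence to seeds; postemergence at 1- to 4-leaf (2–18 cm); paddy species flooded, 2-leaf stage. Vehicle non-phytotoxic, surfactant included.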

cocklebur = experiment: Test B pre-/postemergence herbicide test; format: in vivo, Xanthium strumarium
In short: as §1

corn = experiment: Test B pre-/postemergence herbicide test; format: in vivo, Zea mays
In short: as §2

large crabgrass = experiment: Test B pre-/postemergence herbicide test; format: in vivo, Digitaria sanguinalis
In short: as §2

giant foxtail = experiment: Test B pre-/postemergence herbicide test; format: in vivo, Setaria faberi
In short: as §2

lambsquarters = experiment: Test B pre-/postemergence herbicide test; format: in vivo, Chenopodium album; details: for Lambsquarters plant response rating: postemergence, visual rating
In short: as §2

morningglory = experiment: Test B pre-/postemergence herbicide test; format: in vivo, Ipomoea coccinea; details: for Morningglory plant response rating: postemergence, visual rating
In short: as §1

pigweed = experiment: Test B pre-/postemergence herbicide test; format: in vivo, Amaranthus retroflexus; details: for Pigweed plant response rating: postemergence, visual rating
In short: as §2

rice [2] = experiment: Test B pre-/postemergence herbicide test; format: in vivo, Oryza sativa; details: preemergence
In short: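 Greenhouse pot assay with simultaneous preemergence (treated seed) and postemergence (2–18 cm seedlings) applications of surfactant-containing, non-phytotoxic solvent formulations. Response scored visually 13–15 days later on a 0–100 scale, 100 meaning complete control.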

velvetleaf = experiment: Test B pre-/postemergence herbicide test; format: in vivo, Abutilon theophrasti; details: for Velvetleaf plant response rating: postemergence, visual rating
In short: as §2

blackgrass = experiment: Test B postemergence herbicide test; format: in vivo, Alopecurus myosuroides; details: scale 0 (no effect) to 100 (complete control); for Blackgrass plant response rating: postemergence, visual rating
In short: (§3)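 Read-out: visual comparison with controls, scored 0 to 100, where 100 means complete control and 0 no effect. Formulated chemicals were applied postemergence to plants 2–18 cm tall (1- to 4-leaf), or to flooded-paddy plants at the 2-leaf stage, then held 13 to 15 days under glass.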

wheat = experiment: Test B postemergence herbicide test; format: in vivo, Triticum aestivum; design: key to Wheat plant response rating: 0 = no effect, 100 = complete control; details: scale 0 (no effect) to 100 (complete control); for Wheat plant response rating: postemergence, visual rating
In short: (§4)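 Scale 0–100: zero equals no visible effect, 100 complete control, judged by eye relative to controls. Timing: 13 to 15 days in greenhouse post-treatment. Growth stage at spraying: two leaves (paddy) or one to four leaves, 2–18 cm (postemergence).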

wild oat = experiment: Test B postemergence herbicide test; format: in vivo, Avena fatua; details: scale 0 (no effect) to 100 (complete control); for Oat, Wild plant response rating: postemergence, visual rating
In short: as §4

rice [3] = experiment: Test B flooded paddy test; format: in vivo, Oryza sativa; details: 1000 g ai/ha, visual rating, scale 0 to 100 (0 no effect, 100 complete control), 13 to 15 days
In short: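 Formulated test chemicals went onto postemergence plants measuring 2 to 18 cm, at one to four leaves. For the paddy assay, species had reached two leaves. Scoring took place 13–15 days later by eye, relative to untreated plants, using 0 for no effect up to 100 for full control.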

[4] = test system: small flower umbrella sedge; experiment: Test B flooded paddy test; format: in vivo, Cyperus difformis; details: 1000 g ai/ha, visual rating, scale 0 to 100 (0 no effect, 100 complete control), 13 to 15 days
In short: as §3

ducksalad [5] = experiment: Test B flooded paddy test; format: in vivo, Heteranthera limosa; details: 1000 g ai/ha, visual rating, scale 0 to 100 (0 no effect, 100 complete control), 13 to 15 days
In short: as §3

barnyardgrass [6] = experiment: Test B flooded paddy test; format: in vivo, Echinochloa crus-galli; details: 1000 g ai/ha, visual rating, scale 0 to 100 (0 no effect, 100 complete control), 13 to 15 days
In short: as §3

rice [7] = experiment: Test C flooded paddy test; format: in vivo, Oryza sativa
In short: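 Injury scored visually against controls on a 0 (no effect) to 100 (complete control) scale, 12 to 14 days after treatment in greenhouse. Flooded paddy plants treated at 2-leaf stage; postemergence plants at 1- to 4-leaf stage, 2 to 18 cm tall.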

[8] = test system: smallflower umbrella sedge; experiment: Test C flooded paddy test; format: in vivo, Cyperus difformis
ducksalad [9] = experiment: Test C flooded paddy test; format: in vivo, Heteranthera limosa
barnyardgrass [10] = experiment: Test C flooded paddy test; format: in vivo, Echinochloa crus-galli
In short: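 Scoring by eye, 12–14 days post-treatment, greenhouse-held plants vs. controls; 0 no effect, 100 complete control. Sprayed at 1–4 leaves (2–18 cm); paddy barnyardgrass at 2 leaves, flooded.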

[11] = 125 g ai/ha, 0 = no effect, 100 = complete control, preemergence
[12] = 500 g ai/ha, visual rating 0-100, 0 no effect, 100 complete control, preemergence
[13] = postemergence, 125 g ai/ha, visual rating, scale 0 (no effect) to 100 (complete control)
[14] = postemergence, 500 g ai/ha, visual rating, scale 0 (no effect) to 100 (complete control)
[15] = 125 g ai/ha, scale 0 (no effect) to 100 (complete control)
[16] = 500 g ai/ha, scale 0 (no effect) to 100 (complete control)
[17] = 62 g ai/ha, scale 0 to 100 (0 no effect, 100 complete control)
[18] = 125 g ai/ha, scale 0 to 100 (0 no effect, 100 complete control)
[19] = 250 g ai/ha, scale of 0 to 100, 0 is no effect, 100 is complete control
[20] = 500 g ai/ha, visual rating after 12 to 14 days, scale 0 to 100 (0 no effect, 100 complete control)
[21] = Postemergence, 500 g ai/ha, visual rating after 13 to 15 days, scale 0 (no effect) to 100 (complete control)
[22] = Preemergence, 500 g ai/ha, scale 0 to 100
[23] = preemergence, 125 g ai/ha, 0 to 100 scale, 0 is no effect, 100 is complete control
[24] = Postemergence, 500 g ai/ha, visual rating after 13 to 15 days

## CCNC(=O)c1cccc(NC(=O)c2cn(C(C)(C)C)nc2C)c1 [Compound 183]
Barnyardgrass [1]; [11]
  Barnyardgrass plant response rating (0 to 100 scale): 20
Barnyardgrass [1]; [12]
  Plant response rating, Barnyardgrass: 70
Barnyardgrass [1]; [13]
  Barnyardgrass plant response rating: 0
Barnyardgrass [1]; [14]
  Barnyardgrass plant response rating: 0
Surinam grass; [11]
  Surinam Grass plant response rating (0 to 100 scale): 20
Surinam grass; [12]
  Plant response rating, Surinam Grass: 50
Surinam grass; [15]
  Surinam Grass plant response rating: 0
Surinam grass; [16]
  Surinam Grass plant response rating: 20
cocklebur; [11]
  Cocklebur plant response rating (0 to 100 scale): 0
cocklebur; [12]
  Plant response rating, Cocklebur: 0
cocklebur; [13]
  Cocklebur plant response rating: 50
cocklebur; [14]
  Cocklebur plant response rating: 90
corn; [11]
  Corn plant response rating (0 to 100 scale): 0
corn; [12]
  Plant response rating, Corn: 0
corn; [13]
  Corn plant response rating: 20
corn; [14]
  Corn plant response rating: 20
Large crabgrass; [11]
  Crabgrass, Large plant response rating (0 to 100 scale): 10
Large crabgrass; [12]
  Plant response rating, Crabgrass, Large: 90
Large crabgrass; [13]
  Crabgrass, Large plant response rating: 20
Large crabgrass; [14]
  Crabgrass, Large plant response rating: 30
Giant foxtail; [11]
  Foxtail, Giant plant response rating (0 to 100 scale): 0
Giant foxtail; [12]
  Plant response rating, Foxtail, Giant: 80
Giant foxtail; [13]
  Foxtail, Giant plant response rating: 20
Giant foxtail; [14]
  Foxtail, Giant plant response rating: 30
lambsquarters; [11]
  Lambsquarters plant response rating (0 to 100 scale): 50
lambsquarters; [12]
  Plant response rating, Lambsquarters: 100
lambsquarters; [15]
  Lambsquarters plant response rating: 70
lambsquarters; [16]
  Lambsquarters plant response rating: 80
morningglory; [11]
  Morningglory plant response rating (0 to 100 scale): 10
morningglory; [12]
  Plant response rating, Morningglory: 10
morningglory; [15]
  Morningglory plant response rating: 60
morningglory; [16]
  Morningglory plant response rating: 70
pigweed; [11]
  Pigweed plant response rating (0 to 100 scale): 100
pigweed; [12]
  Plant response rating, Pigweed: 100
pigweed; [15]
  Pigweed plant response rating: 70
pigweed; [16]
  Pigweed plant response rating: 80
Rice [2]; 125 g ai/ha, 0 = no effect, 100 = complete control
  Rice plant response rating (0 to 100 scale): 0
Rice [2]; 500 g ai/ha, visual rating 0-100, 0 no effect, 100 complete control
  Plant response rating, Rice: 80
velvetleaf; [11]
  Velvetleaf plant response rating (0 to 100 scale): 10
velvetleaf; [12]
  Plant response rating, Velvetleaf: 50
velvetleaf; [15]
  Velvetleaf plant response rating: 40
velvetleaf; [16]
  Velvetleaf plant response rating: 60
blackgrass; 125 g ai/ha
  Blackgrass plant response rating: 0
blackgrass; 500 g ai/ha
  Blackgrass plant response rating: 10
wheat; 125 g ai/ha
  Wheat plant response rating: 0
wheat; 500 g ai/ha
  Wheat plant response rating: 0
Wild oat; 125 g ai/ha
  Oat, Wild plant response rating: 10
Wild oat; 500 g ai/ha
  Oat, Wild plant response rating: 20
Rice [3]
  Rice plant response rating: 0
[4]
  Sedge, Umbrella plant response rating: 80
Ducksalad [5]
  Ducksalad plant response rating: 70
Barnyardgrass [6]
  Barnyardgrass plant response rating: 60
Rice [7]; [17]
  Rice plant response rating: 0
Rice [7]; [18]
  Rice plant response rating: 0
Rice [7]; [19]
  Rice plant response rating: 0
Rice [7]; [20]
  Plant response rating, Rice: 0
[8]; [17]
  Sedge, Umbrella plant response rating: 0
[8]; [18]
  Sedge, Umbrella plant response rating: 0
[8]; [19]
  Sedge, Umbrella plant response rating: 10
[8]; [20]
  Plant response rating, Sedge, Umbrella: 50
Ducksalad [9]; [17]
  Ducksalad plant response rating: 0
Ducksalad [9]; [18]
  Ducksalad plant response rating: 0
Ducksalad [9]; [19]
  Ducksalad plant response rating: 10
Ducksalad [9]; [20]
  Plant response rating, Ducksalad: 20
Barnyardgrass [10]; [17]
  Barnyardgrass plant response rating: 0
Barnyardgrass [10]; 125 g ai/ha, scale of 0 to 100, 0 is no effect, 100 is complete control
  Barnyardgrass plant response rating: 0
Barnyardgrass [10]; [19]
  Barnyardgrass plant response rating: 0
Barnyardgrass [10]; [20]
  Plant response rating, Barnyardgrass: 0

## CCNC(=O)c1cc(NC(=O)c2cc(C(C)(C)C)nn2CC)ccc1C [Compound 68]
Barnyardgrass [1]; [21]
  Plant response rating, Barnyardgrass: 0
Barnyardgrass [1]; [22]
  Barnyardgrass plant response rating: 10
Barnyardgrass [1]; [13]
  Barnyardgrass plant response rating: 0
Barnyardgrass [1]; [23]
  Plant response rating, Barnyardgrass: 0
Surinam grass; [21]
  Plant response rating, Surinam Grass: 0
Surinam grass; [15]
  Surinam Grass plant response rating: 0
Surinam grass; [23]
  Plant response rating, Surinam Grass: 0
cocklebur; [21]
  Plant response rating, Cocklebur: 10
cocklebur; [22]
  Cocklebur plant response rating: 0
cocklebur; [13]
  Cocklebur plant response rating: 10
cocklebur; [23]
  Plant response rating, Cocklebur: 0
corn; [21]
  Plant response rating, Corn: 0
corn; [22]
  Corn plant response rating: 0
corn; [13]
  Corn plant response rating: 0
corn; [23]
  Plant response rating, Corn: 0
Large crabgrass; [21]
  Plant response rating, Crabgrass, Large: 0
Large crabgrass; [22]
  Crabgrass, Large plant response rating: 0
Large crabgrass; [13]
  Crabgrass, Large plant response rating: 0
Large crabgrass; [23]
  Plant response rating, Crabgrass, Large: 0
Giant foxtail; [21]
  Plant response rating, Foxtail, Giant: 0
Giant foxtail; [22]
  Foxtail, Giant plant response rating: 0
Giant foxtail; [13]
  Foxtail, Giant plant response rating: 0
Giant foxtail; [23]
  Plant response rating, Foxtail, Giant: 0
lambsquarters; [21]
  Plant response rating, Lambsquarters: 10
lambsquarters; [15]
  Lambsquarters plant response rating: 0
lambsquarters; [23]
  Plant response rating, Lambsquarters: 20
morningglory; [21]
  Plant response rating, Morningglory: 0
morningglory; [15]
  Morningglory plant response rating: 0
morningglory; [23]
  Plant response rating, Morningglory: 20
pigweed; [21]
  Plant response rating, Pigweed: 30
pigweed; [15]
  Pigweed plant response rating: 10
pigweed; [23]
  Plant response rating, Pigweed: 70
Rice [2]; 125 g ai/ha, 0 to 100 scale, 0 is no effect, 100 is complete control
  Plant response rating, Rice: 0
velvetleaf; [21]
  Plant response rating, Velvetleaf: 0
velvetleaf; [15]
  Velvetleaf plant response rating: 0
velvetleaf; [23]
  Plant response rating, Velvetleaf: 0
blackgrass; [24]
  Plant response rating, Blackgrass: 20
blackgrass; 125 g ai/ha
  Blackgrass plant response rating: 10
wheat; [24]
  Plant response rating, Wheat: 0
wheat; 125 g ai/ha
  Wheat plant response rating: 0
Wild oat; [24]
  Plant response rating, Oat, Wild: 20
Wild oat; 125 g ai/ha
  Oat, Wild plant response rating: 10
Rice [3]
  Rice plant response rating: 0
[4]
  Sedge, Umbrella plant response rating: 0
Ducksalad [5]
  Ducksalad plant response rating: 0
Barnyardgrass [6]
  Barnyardgrass plant response rating: 0
